# Reference: patent publication US20160000837A1, “COMPOSITIONS AND METHODS TO ALTER GUT MICROBIAL FERMENTATION USING SULFATE-REDUCING BACTERIA” (WASHINGTON UNIVERSITY, priority 2013, published 2016)
# What was measured:
# [1] = tested on: D. piger; assay: In vitro cross feeding between B. thetaiotaomicron and D. piger (growth in conditioned medium, OD600); assay type: cell-based, D. piger GOR1; conditions: for D. piger growth in medium conditioned by wild-type B. thetaiotaomicron grown on the named carbon substrate: 0.5% carbon substrate in minimal medium, filter-sterilized, lactate 30 mM added, no added sulfate
# Method: A B. thetaiotaomicron strain Δbt0238 that lacks detectable sulfatase activity, and the isogenic wild-type strain were grown in separate cultures containing minimal medium with either a sulfated or non-sulfated carbon substrate (chondroitin sulfate and fructose, respectively).
# Exponential phase cultures of B. thetaiotaomicron Δbt0238 and the isogenic wild-type parental strain (Benjdia et al., 2011; kindly provided by Eric Martens, University of Michigan and Olivier Berteau, INRA), grown in Mega Medium 2.0, were inoculated under anaerobic conditions (atmosphere of 5% H2, 20% CO2 and 75% N2) into Balch tubes containing minimal medium supplemented with either 0.5% (w/v) chondroitin sulfate purified from shark cartilage (Sigma) or 0.5% fructose (Sigma) (n=6 tubes/carbon substrate/strain). […] Cultures representing the same strain and carbon substrate were combined and bacteria were pelleted by centrifugation at 3,200×g at 4° C. for ˜20 min. The supernatant was removed and sterilized by passage through a 0.22 μm filter (Fisher). […] The pH of the conditioned medium was adjusted to ˜7.0 using potassium phosphate buffer (pH 7.2). One half of each conditioned medium preparation was used to fill anaerobic Balch tubes (in triplicate) while sulfate (14 mM Na2SO4 and 4.1 mM MgSO4) was added to the remaining conditioned medium prior to filling the tubes (in triplicate).
# [2] = tested on: D. piger; assay: COPRO-Seq relative abundance of D. piger in fecal microbiota of gnotobiotic mice fed sulfur-supplemented HF/HS diets; assay type: in vivo
# From the text: Six groups, each composed of two co-housed mice colonized with the 9-member model human gut microbiota were fed one of 13 diets, all based on the HF/HS diet (0.12% w/w SO4; see Table S2 of Rey et al. PNAS 110: 13582-13587 for diet composition). Each group of mice were started on the HF/HS diet and then given a sequence of four diets with differing sulfur content, each for a 7-day period. The sequence of presentation of the four diets was randomized so that that each diet was eventually fed to two different groups of co-housed animals.
# DNA isolated from feces (and cecal contents) was used to prepare libraries for shotgun Illumina sequencing (McNulty et al., 2011). Briefly, 1 μg of DNA from each sample was fragmented by sonication to an average size of ˜500 bp and subjected to enzymatic blunting and adenine tailing. Customized Illumina adapters containing maximally distant 4 bp or 8 bp barcodes were ligated to the A-tailed DNA. Barcoded libraries were then pooled, subjected to gel electrophoresis for size selection (˜200 bp) and the size-selected DNA amplified by PCR using primers and cycling conditions recommended by Illumina. Amplicons were purified (QIAquick PCR Purification Kit, Qiagen) and sequenced using an Illumina GA-IIx or HiSeq2000 instrument, with libraries loaded onto the flow cell at a concentration of 2.0-2.5 pM. […]
molecule,measurement,setting,value
O=C(CO)[C@@H](O)[C@H](O)[C@H](O)CO [fructose],D. piger growth in medium conditioned by wild-type B. thetaiotaomicron grown on the named carbon substrate,[1],lack of growth
CC(O)C(=O)O (stereo not shown) [lactate],growth of D. piger with lactate as sole carbon and electron source,"[1]; in the absence of sulfate, data not shown",does not support growth
O=S(=O)(O)O [sulfate],relative abundance of D. piger in the 9-member model human microbiota,"[2]; 600-fold change in dietary sulfate (0.001% to 0.6% w/w) in HF/HS-based diets, 7 days each",did not affect
same,D. piger growth in fructose-conditioned medium after addition of exogenous sulfate,[1]; 14 mM Na2SO4 and 4.1 mM MgSO4 added,allowed growth
chondroitin sulfate,D. piger levels in fecal microbiota relative to the HF/HS diet,"[2]; HF/HS diet supplemented with 3% chondroitin sulfate, 7 days, 9-member community, p<0.05",doubled
same,D. piger growth in medium conditioned by wild-type B. thetaiotaomicron grown on the named carbon substrate,[1],Growth of D. piger was only observed
same,ability of D. piger to metabolize the substrate (growth in medium harvested from B. thetaiotaomicron Δbt0238 cultures),"[1]; chondroitin sulfate-containing minimal medium, lactate added",not able to metabolize
